Where two headings read alike, the source gives them in different places.
Key:
Format in all cases: binding, sheep
Antibody to Immunogen II = assay: Competitive ELISA (Example 36), antibody RS1833B12, tracer ESC4555/LK959, standard JWH-018; conditions: Cross-reactants at 100 ng/ml; Antibody to Immunogen II
Procedure: An aqueous solution of each immunogen was formulated with Freund's Complete Adjuvant (FCA) to form an emulsion consisting of 2mg/ml* immunogen in 50% (v/v) FCA. Three sheep were immunised with this emulsion (1° immunisation), 0.25ml being intramuscularly injected at each of four sites in the flank of each animal. Subsequent immunizations (boosts) contained 1mg/ml* immunogen. All boosts were emulsified in 50% (v/v) Freund's Incomplete Adjuvant (FIA) and were administered in the same manner as the 1° immunisation, at monthly intervals. Blood sampling took place 7 to 14 days after each boost. *The general procedure for immunogen administration is outlined above, however, it was necessary to deviate from this protocol in some cases, due to reduced immunogen concentrations (Immunogens II, IV, VII and VIII) and/or amount available (Immunogen VIII). Any deviations from the protocol described are outlined in Table 1A below and highlighted in bold. Table 1A: Amount and volume of immunogens administered for primary and subsequent boosts
The appropriate antibody coating dilution was determined using standard ELISA checkerboard techniques. The plate was incubated overnight at 4°C, washed 4 times over 10 minutes with Tris buffered saline containing Tween 20 (TBST) and tapped dry. […] 75µl of conjugate (appropriate hapten-HRP) diluted in Tris buffer (pH 7.2) containing EDTA, D-mannitol, sucrose, thimerosal and BSA, was added to each of the wells. The appropriate dilution of conjugate was also determined using standard ELISA checkerboard techniques. The plate was incubated at 25°C for 1 hour. Excess unbound conjugate was removed by washing 6 times over a 10 minute period with TBST. 125µl of tetramethylbenzidine (TMB) substrate solution was added to each well of the plate that was then incubated for 20 minutes in the dark at room temperature. The reaction was terminated by addition of 125µl 0.2M H2SO4 to each well. The absorbance was then measured at 450nm using a microtiter plate reader. The data are inputted to a computer program called 'KC Junior'. It is a 4 parameter fit curve and allow the calculatation of concentrations between the standard runs.
In a similar manner to that described above, the wells of a 96-well microtiter plate were coated with the IgG fraction of the antiserum raised to Immunogens I or II.
The data set our in Tables 3 and 4 are generated using antibodies raised against the indicated Immunogens in a competitive binding assay with the indicated tracers, using the indicated standards: Table 2
Using the calibration curves generated and employing a single level of cross reactants, these were used to determine the cross-reactivity of each immunoassay with these substances. These are the standards used for the IC50 and cross-reactivity data generation • Immunogen I - JWH-018 • Immunogen II - JWH-018 • Immunogen IV - JWH-018 • Immunogen VII - JWH-015 • Immunogen VIII - JWH-018 Table 4: Cross reactivity of the competitive ELISAs for synthetic cannabinoids and their metabolites

Antibody to Immunogen I = conditions: Cross-reactants at 100 ng/ml; Antibody to Immunogen I
Procedure, shortened: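 Sheep anti-Immunogen I IgG coated on plates, then JWH-018 standards (0–40 ng/ml) competed with hapten-HRP conjugate for 1 h at 25°C. TMB read-out at 450 nm, 4-parameter fit. IC50 is the standard concentration giving 50% B/B0; cross-reactivity of related cannabinoids taken from the calibration curves.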

[1] = system: Antibody to Immunogen VIII; conditions: Cross-reactants at 100 ng/ml; Antibody to Immunogen VIII
[2] = system: Antibody to Immunogen VII
Antibody to Immunogen IV = conditions: Cross-reactants at 100 ng/ml; Antibody to Immunogen IV
[3] = Cross-reactants at 100 ng/ml, Antibody to Immunogen VII

| Compound | %B/B0 (Antibody to Immunogen II) [%] | %B/B0 (Antibody to Immunogen I) [%] | %B/B0 [1] [%] | %B/B0 [2, 3] [%] | %B/B0 ([2]; JWH-015 standard 1.25 ng/ml) [%] | %B/B0 ([2]; JWH-015 standard 2.5 ng/ml) [%] | %B/B0 ([2]; JWH-015 standard 5 ng/ml) [%] | %B/B0 ([2]; JWH-015 standard 10 ng/ml) [%] | %B/B0 ([2]; JWH-015 standard 20 ng/ml) [%] | %B/B0 ([2]; JWH-015 standard 40 ng/ml) [%] | %B/B0 ([2]; JWH-015 standard 80 ng/ml) [%] | IC50 ([2]; Table 3c standard curve, standard concentration which produces 50% B/B0) [ng/mL] | %B/B0 (Antibody to Immunogen IV) [%] |
| --- | --- | --- | --- | --- | --- | --- | --- | --- | --- | --- | --- | --- | --- |
| CCCn1c(C)c(C(=O)c2cccc3ccccc23)c2ccccc21 [JWH-015] | 65.67 | 14.67 | 92.27 | 17.84 | 75 | 62 | 54 | 43 | 34 | 26 | 20 | 5.910 | 93.20 |
| CN1CCCCC1Cn1cc(C(=O)c2ccccc2I)c2ccccc21 (centres unmarked) [AM-2233] | 86.43 | 16.97 | 91.25 | 72.46 | – | – | – | – | – | – | – | – | 92.10 |
| CCCCCn1c(C)c(C(=O)c2cccc3ccccc23)c2ccccc21 [JWH-007] | 66.06 | 32.96 | 61.76 | 27.77 | – | – | – | – | – | – | – | – | 60.63 |
| CS(=O)(=O)O.Cc1c(C(=O)c2cccc3ccccc23)c2cccc3c2n1[C@H](CN1CCOCC1)CO3 [(+)WIN 55212-2 (mesylate), (+)WIN 55212-2] | 83.87 | 17.00 | 107.12 | 24.08 | – | – | – | – | – | – | – | – | 92.76 |
| CC(C)C(C)n1cc(C(=O)c2cccc3ccccc23)c2ccccc21 (single isomer, unassigned) [JWH 018 N-(1,2-dimethylpropyl) isomer] | 71.33 | 6.60 | 67.71 | 62.29 | – | – | – | – | – | – | – | – | 87.11 |
| O=C(c1cccc2ccccc12)c1cn(CCN2CCOCC2)c2ccc(O)cc12 [JWH-200 5-hydroxyindole metabolite] | 64.99 | 12.61 | 90.88 | 82.42 | – | – | – | – | – | – | – | – | 97.53 |
| CCCCCn1cc(C(=O)c2c(C)ccc3ccccc23)c2ccccc21 [JWH 122 2-methylnaphthyl isomer] | 27.14 | 33.35 | 61.74 | 85.37 | – | – | – | – | – | – | – | – | 26.13 |
| O=C(c1cccc2ccccc12)c1cn(CCCCO)c2ccccc12 [JWH-073 N-(4-hydroxybutyl) metabolite] | 60.01 | 3.22 | 57.99 | 48.81 | – | – | – | – | – | – | – | – | 52.61 |
| CCCCn1cc(C(=O)c2cccc3ccccc23)c2cccc(O)c21 [JWH-073 7-hydroxyindole metabolite] | 46.05 | 5.59 | 94.04 | 61.78 | – | – | – | – | – | – | – | – | 96.95 |
| O=C(c1cccc2ccccc12)c1cn(CCCCCF)c2ccccc12 [AM-2201] | 11.72 | 3.72 | 16.74 | 55.28 | – | – | – | – | – | – | – | – | 6.20 |
| CCCCCn1cc(C(=O)c2cccc3ccccc23)c2ccc(OC)cc21 [JWH-018 6-methoxyindole analogue] | 20.44 | 10.55 | 77.22 | 72.33 | – | – | – | – | – | – | – | – | 90.65 |
| CCCC(C)n1cc(C(=O)c2cccc3ccccc23)c2ccccc21 (single isomer, unassigned) [JWH-018 N-(1-methylbutyl) isomer] | 51.92 | 12.42 | 63.22 | 67.71 | – | – | – | – | – | – | – | – | 73.49 |
| CC(C)CCn1cc(C(=O)c2cccc3ccccc23)c2ccccc21 [JWH 018 N-(3-methylbutyl) isomer (JWH-073 3-methylbutyl homologue), JWH 018 N-(3-methylbutyl) isomer] | 30.38 | 3.16 | 53.29 | 48.81 | – | – | – | – | – | – | – | – | 12.75 |
| CCCCCn1cc(C(=O)c2ccccc2OC)c2ccccc21 [RCS-4 2-methoxy isomer] | 42.74 | 29.14 | 29.32 | 87.27 | – | – | – | – | – | – | – | – | 15.28 |
| O=C(c1cccc2ccccc12)c1cn(CCCC(O)CF)c2ccccc12 (centres unmarked) [AM-2201 N-(4-hydroxypentyl) metabolite] | 46.55 | 3.80 | 36.41 | 52.75 | – | – | – | – | – | – | – | – | 43.62 |
| CCCCCCn1cc(C(=O)c2cccc3ccccc23)c2cc(O)ccc21 [JWH 019 5-hydroxyindole metabolite] | 17.34 | 19.81 | 101.57 | 87.58 | – | – | – | – | – | – | – | – | 93.84 |
| CC(O)CCn1cc(C(=O)c2cccc3ccccc23)c2ccccc21 (centres unmarked) [JWH-073 N-(3-hydroxybutyl) metabolite] | 54.52 | 3.10 | 94.04 | 43.39 | – | – | – | – | – | – | – | – | 53.52 |
| O=C(c1cccc2ccccc12)c1cn(CCN2CCOCC2)c2cccc(O)c12 [JWH-200 4-hydroxyindole metabolite] | 78.17 | 44.97 | 91.82 | 91.15 | – | – | – | – | – | – | – | – | 87.88 |
| O=C(c1cccc2ccccc12)c1cn(CCN2CCOCC2)c2cc(O)ccc12 [JWH-200 6-hydroxyindole metabolite] | 61.65 | 7.27 | 83.20 | 65.52 | – | – | – | – | – | – | – | – | 94.41 |
| CCCCCn1cc(C(=O)c2ccc(C)c3ccccc23)c2ccccc21 [JWH-122] | 44.55 | 62.98 | 14.43 | 89.37 | – | – | – | – | – | – | – | – | 3.94 |
| C=CCCCn1cc(C(=O)c2cccc3ccccc23)c2ccccc21 [JWH-022] | 11.72 | 4.51 | 28.94 | 58.44 | – | – | – | – | – | – | – | – | 10.61 |
| O=C(c1cccc(I)c1)c1cn(CCCCCF)c2ccccc12 [AM-694 3-iodo isomer] | 48.58 | 31.37 | 12.71 | 89.49 | – | – | – | – | – | – | – | – | 37.20 |
| CC(C)(C)Cn1cc(C(=O)c2cccc3ccccc23)c2ccccc21 [JWH-018 N-(2,2-dimethylpropyl) isomer] | 60.15 | 3.89 | 95.09 | 52.46 | – | – | – | – | – | – | – | – | 80.42 |
| CCCCn1cc(C(=O)c2cccc3ccccc23)c2ccc(O)cc21 [JWH-073 6-hydroxyindole metabolite] | 28.03 | 5.93 | 93.52 | 61.83 | – | – | – | – | – | – | – | – | 74.89 |
| CCCCn1cc(C(=O)c2c(C)ccc3ccccc23)c2ccccc21 [JWH 073 2-methylnaphthyl analog] | 43.34 | 21.84 | 78.79 | 76.74 | – | – | – | – | – | – | – | – | 34.47 |
| O=C(c1ccc(Cl)c2ccccc12)c1cn(CCCCCO)c2ccccc12 [JWH-398 N-(5-hydroxypentyl) metabolite] | 67.49 | 48.07 | 51.33 | 82.97 | – | – | – | – | – | – | – | – | 22.01 |
| Cc1ccc(C(=O)c2cn(CCCCCO)c3ccccc23)c2ccccc12 [JWH-122 N-(5-hydroxypentyl) metabolite] | 71.76 | 42.80 | 48.67 | 83.65 | – | – | – | – | – | – | – | – | 25.72 |
